According to the NIST ThermoML archive (doi:10.1021/acs.jced.8b00723):
± gives the expanded uncertainty stated by the source.

Assay: an = ratio of the nth substance listed
Settings: 308.15 K, 100 kPa, Liquid; for speed of sound: Single path-length method; for mass density: Vibrating tube method

Structure (SMILES)	speed of sound (a1 = 0.05) [m/s]	speed of sound (a1 = 0.1) [m/s]	speed of sound (a1 = 0.15) [m/s]	mass density (a1 = 0.05) [kg/m3]	mass density (a1 = 0.1) [kg/m3]	mass density (a1 = 0.15) [kg/m3]	speed of sound (a1 = 0.075) [m/s]	mass density (a1 = 0.075) [kg/m3]
CCO [ethanol] + O	1542.9 ± 0.6	1559.2 ± 0.6	1590.4 ± 0.6	990.6 ± 10	982.8 ± 10	971.7 ± 10	–	–
CO [methanol] + O	1533.2 ± 0.5	1543.5 ± 0.5	1566.7 ± 0.5	988.6 ± 10	980.6 ± 10	971 ± 10	–	–
CC(C)O [propan-2-ol] + O	1551.7 ± 0.6	1569.7 ± 0.6	–	993.1 ± 10	987.6 ± 10	–	1566.2 ± 0.6	991.8 ± 10
